Data: PubChem BioAssay AID1918953 (Molecular Pharmacology Branch, DTP, NCI, 2023)

Tested on: MDA-MB-231 complex spheroid viability
Test: Anticancer human tumor MDA-MB-231/ATCC cell line growth inhibition;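 further: drug exposure lasted 7 days starting on day 3 of spheroid growth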
Settings: for IC50: curve of first compound; for viability, T/C: stronger effect = lower value
Summary of the method: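 Complex spheroids of tumor cells with HUVEC and human MSCs, exposed to iadademstat combined with other agents. Each agent tested in half-log steps from near clinical Cmax (else 10 microM top), DMSO ≤0.25%.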

[1] = second compound 0.1 µM, first compound 0.0316 µM
[2] = second compound 0.1 µM, first compound 0.1 µM
[3] = second compound 0.1 µM, first compound 0.316 µM
[4] = second compound 0.1 µM, first compound 1 µM
[5] = second compound 0.1 µM, first compound 3.16 µM
[6] = second compound 0.1 µM, first compound 10 µM
[7] = second compound 0.316 µM, first compound 0.0316 µM
[8] = second compound 0.316 µM, first compound 0.1 µM
[9] = second compound 0.316 µM, first compound 0.316 µM
[10] = second compound 0.316 µM, first compound 1 µM
[11] = second compound 0.316 µM, first compound 3.16 µM
[12] = second compound 0.316 µM, first compound 10 µM
[13] = second compound 1 µM, first compound 0.0316 µM
[14] = second compound 1 µM, first compound 0.1 µM
[15] = second compound 1 µM, first compound 0.316 µM
[16] = second compound 1 µM, first compound 1 µM
[17] = second compound 1 µM, first compound 3.16 µM
[18] = second compound 1 µM, first compound 10 µM
[19] = second compound 3.16 µM, first compound 0.0316 µM
[20] = second compound 3.16 µM, first compound 0.1 µM
[21] = second compound 3.16 µM, first compound 0.316 µM
[22] = second compound 3.16 µM, first compound 1 µM
[23] = second compound 3.16 µM, first compound 3.16 µM
[24] = second compound 3.16 µM, first compound 10 µM
[25] = second compound 10 µM, first compound 0.0316 µM
[26] = second compound 10 µM, first compound 0.1 µM
[27] = second compound 10 µM, first compound 0.316 µM
[28] = second compound 10 µM, first compound 1 µM
[29] = second compound 10 µM, first compound 3.16 µM
[30] = second compound 10 µM, first compound 10 µM

SMILES: CC1(C)CCC(CN2CCN(c3ccc(C(=O)NS(=O)(=O)c4ccc(NCC5CCOCC5)c([N+](=O)[O-])c4)c(Oc4cnc5[nH]ccc5c4)c3)CC2)=C(c2ccc(Cl)cc2)C1 + NC1CC1c1ccc(-c2cccc(O)c2)cc1
- IC50 (second compound 0.1 µM): 4480 nM
- IC50 (second compound 0.316 µM): 4290 nM
- IC50 (second compound 1 µM): 4430 nM
- IC50 (second compound 3.16 µM): 4280 nM
- IC50 (second compound 10 µM): < 31.6 nM
- viability, T/C [1]: 90.9%
- viability, T/C [2]: 93%
- viability, T/C [3]: 94.5%
- viability, T/C [4]: 112%
- viability, T/C [5]: 71.2%
- viability, T/C [6]: 1.41%
- viability, T/C [7]: 74.1%
- viability, T/C [8]: 78.6%
- viability, T/C [9]: 82.1%
- viability, T/C [10]: 77.9%
- viability, T/C [11]: 67.6%
- viability, T/C [12]: 1.16%
- viability, T/C [13]: 75.2%
- viability, T/C [14]: 70%
- viability, T/C [15]: 76.7%
- viability, T/C [16]: 80.5%
- viability, T/C [17]: 70%
- viability, T/C [18]: 1.72%
- viability, T/C [19]: 68.2%
- viability, T/C [20]: 70.2%
- viability, T/C [21]: 78.8%
- viability, T/C [22]: 79.4%
- viability, T/C [23]: 67.1%
- viability, T/C [24]: 1.48%
- viability, T/C [25]: 48.5%
- viability, T/C [26]: 42.5%
- viability, T/C [27]: 48.5%
- viability, T/C [28]: 55.3%
- viability, T/C [29]: 45.6%
- viability, T/C [30]: 0.6%

SMILES: CC1COCCN1c1cc(C2(S(C)(=N)=O)CC2)nc(-c2ccnc3[nH]ccc23)n1 (stereo not given) + NC1CC1c1ccc(-c2cccc(O)c2)cc1
- IC50 (second compound 0.1 µM): 952 nM
- IC50 (second compound 0.316 µM): 749 nM
- IC50 (second compound 1 µM): 537 nM
- IC50 (second compound 3.16 µM): 832 nM
- IC50 (second compound 10 µM): 490 nM
- viability, T/C [1]: 90.7%
- viability, T/C [2]: 90.3%
- viability, T/C [3]: 87%
- viability, T/C [4]: 47.6%
- viability, T/C [5]: 31.5%
- viability, T/C [6]: 22.4%
- viability, T/C [7]: 71.7%
- viability, T/C [8]: 74.8%
- viability, T/C [9]: 74.5%
- viability, T/C [10]: 42%
- viability, T/C [11]: 23.3%
- viability, T/C [12]: 20.3%
- viability, T/C [13]: 53.6%
- viability, T/C [14]: 68.1%
- viability, T/C [15]: 57.4%
- viability, T/C [16]: 40.4%
- viability, T/C [17]: 23.9%
- viability, T/C [18]: 20.9%
- viability, T/C [19]: 72.4%
- viability, T/C [20]: 80.1%
- viability, T/C [21]: 72.7%
- viability, T/C [22]: 45.6%
- viability, T/C [23]: 23%
- viability, T/C [24]: 21.1%
- viability, T/C [25]: 57.1%
- viability, T/C [26]: 59.7%
- viability, T/C [27]: 56.4%
- viability, T/C [28]: 40.1%
- viability, T/C [29]: 23.6%
- viability, T/C [30]: 18.7%
